This passage reports IC50, EC50 and Emax results from patent US20250236614A1, “BICYCLIC TETRAHYDROAZEPINE DERIVATIVES” (Hoffmann-La Roche Inc., priority 2022, published 2025).

As usually defined, the pIC50 is −log10 of the IC50, conventionally taken in molar units.

pEC50, pIC50: −log10 of the molar value.

One test deals with DGK ζ kinase (Homo sapiens, UniProt Q13574). The test can be described thus: In vitro DGK inhibition assay (ADP Glo) run by Reaction Biology Corp., DGK zeta. The format is biochemical. The note with it: isomer A, 2 nM kinase, 50 μM ATP, 500 uM DLG, 10-dose, 3-fold dilution starting at 1 μM, read-out: DGKzeta IC50. As for the experimental part:
(§1) DGK α and ζ kinase use ATP to phosphorylate the substrate 1,2-dilauroyl-sn-glycerol (DLG). ATP is converted to ADP as a result of this enzymatic reaction.
(§2) After the kinase reaction, an ATP-depletion reagent is added to terminate the kinase reaction and deplete any remaining ATP, leaving only ADP. Second, a detection reagent is added to simultaneously convert ADP to ATP and allow the newly synthesized ATP to be converted to light using a coupled luciferase/luciferin reaction.
(§3) DGK α and ζ kinase ADP Glo assays were ran by Reaction Biology Corp., 1 Great Valley Parkway, Suite 2, Malverm, 19355, PA, USA. Information provided by the service provider are the following: DGK α and ζ kinases were used at 2 nM final concentration. Reactions were carried out at 50 μM ATP. 500 uM of the substrate DLG (Dilauroyl-sn-glycerol) was used. Compounds were received at 10 mM DMSO stock solution and were tested in 10-dose IC50 duplicate with 3-fold serial dilution starting at 1 μM. A control compound, Calphostin C, was tested in 10-dose IC50 with 3-fold serial dilution starting at 100 μM.
A general note: In ADP-Glo the light output rises with the ADP produced.

The next test deals with primary human T-cells. The test can be described thus: T-cell proliferation assay (CellTiter-Glo). The note with it: Homo sapiens, T-cell, 120 h, isomer A; for pEC50: CD3 antibody-stimulated T-cells, CellTiter-Glo after 5 days, read-out: Tcell Proliferation CD3 EC50; for Emax: CD3 condition, 5 days, 20 μM reference compound A1 = 100%, DMSO neutral control, read-out: Emax proliferation (% activation). It is filed as cell-based. How it is done: Expanded primary human T-cells are thawed and cultured in RPMI 1640 (Gibco, #61870-010)+5% human serum (HS, Sigma, #H3667)+1 mM Sodium Pyruvate (Gibco, #11360-039)+50 μM 2-mercaptoethanol (Gibco, #31350-010) and 1× Pen-Strep (Life Technologies, #15140122) medium at density of 2 Mio/ml for 3 hours in 5% CO2, 37° C. and 95% humidity. For coating of plates, PBS++ only or PBS++ with CD3 antibody (concentration depending on donor and determined by CD3 titrations) is added 100 μl/well to Poly-D Lysine coated 96-well plates. Plates are sealed and incubated at room temperature for 3 hours on a table-top rocking platform. After incubation, plates are washed once with PBS−− and filled with 40 μl/well culture medium only. Compounds are then added (see next section) to medium only plates. After 3 hours of culturing the T-cells, cells are filtered through a cell strainer (Miltenyi Biotech, #130-041-407), counted again and concentration is adjusted to 1.25 Mio/ml.
Cells are then seeded 80 μl/well to the 40 μl/well including dispensed compounds according to plate layout. By adding cells, compounds are further diluted 1:3, and resulting in 100k cells/120 μl/well. After 48 hours 40 μl of supernatant is collected carefully from the top while not disturbing the cells. Cells are assessed for proliferation 5 days later by measuring […] using CellTiterGlo (Promega).
Compounds were added in a 5 or 6 pt dose response with the Tecan D300e Digital Dispenser, all conditions 3 times more concentrated than the end-concentration, since cells are added afterwards (80 μl cells to 40 μl prepared medium with treatment). The DR was starting at 20 μM or 10 μM final top concentration and a dilution factor of 3.333. The positive control was the reference compound A1 that was added in a dose response as well, additionally to 3 wells of only 20 μM representing the positive stimulator control. All wells were normalized with DMSO to a final concentration of 0.6% (0.2% end-concentration).
After 5 days, for detection of ATP which is directly proportional to the number of cells present per well, the CellTiter-Glo® 2.0 Reagent is used. After visual control for toxicity or precipitations of the tested compounds, the plates are equilibrated to room temperature for 45 minutes. CellTiter-Glo® 2.0 Reagent is equilibrated to room temperature as well. After equilibration, an equal amount of CellTiter-Glo reagent is added to the cells (80 μl/well) with an electronic multichannel pipette. Plates are placed on a rocking platform for 15 minutes at room temperature. After incubation, the bottom of the plates is sealed with backing tape. Luminescence is measured with PHERAstar FSX (interval time 0.5 sec, gain 3000, focal height 15 mm) and exported as CSV file for analysis in Genedata screener.
CD3 and PBS plates were analysed separately in Genedata Screener using Roche Normalization PCT_POS_CTRL with DMSO set as Neutral Control and 20 μM of the reference compound A1 set as Stimulator Control/100%.
For CD3 conditions EC50 and Emax of the fitted sigmoidal curve were reported. If no curve could be fitted, the EC50 was reported as blank field and the Emax was based on individual data points. […] Compounds which activate unstimulated cells (see IL2 measurements) or compounds which negatively affected viability were flagged.
For orientation: Cellular ATP, detected with luciferase, serves as a proxy for viable cell number.

In another test the target is DGK α kinase (Homo sapiens, UniProt P23743). The test can be described thus: In vitro DGK inhibition assay (ADP Glo) run by Reaction Biology Corp., DGK alpha. It is filed as biochemical. The note with it: isomer A, 2 nM kinase, 50 μM ATP, 500 uM DLG, 10-dose, 3-fold dilution starting at 1 μM, read-out: DGKalpha IC50. How it is done:
as §1, §2, §3

DGK α kinase, sequence (P23743 whole entry): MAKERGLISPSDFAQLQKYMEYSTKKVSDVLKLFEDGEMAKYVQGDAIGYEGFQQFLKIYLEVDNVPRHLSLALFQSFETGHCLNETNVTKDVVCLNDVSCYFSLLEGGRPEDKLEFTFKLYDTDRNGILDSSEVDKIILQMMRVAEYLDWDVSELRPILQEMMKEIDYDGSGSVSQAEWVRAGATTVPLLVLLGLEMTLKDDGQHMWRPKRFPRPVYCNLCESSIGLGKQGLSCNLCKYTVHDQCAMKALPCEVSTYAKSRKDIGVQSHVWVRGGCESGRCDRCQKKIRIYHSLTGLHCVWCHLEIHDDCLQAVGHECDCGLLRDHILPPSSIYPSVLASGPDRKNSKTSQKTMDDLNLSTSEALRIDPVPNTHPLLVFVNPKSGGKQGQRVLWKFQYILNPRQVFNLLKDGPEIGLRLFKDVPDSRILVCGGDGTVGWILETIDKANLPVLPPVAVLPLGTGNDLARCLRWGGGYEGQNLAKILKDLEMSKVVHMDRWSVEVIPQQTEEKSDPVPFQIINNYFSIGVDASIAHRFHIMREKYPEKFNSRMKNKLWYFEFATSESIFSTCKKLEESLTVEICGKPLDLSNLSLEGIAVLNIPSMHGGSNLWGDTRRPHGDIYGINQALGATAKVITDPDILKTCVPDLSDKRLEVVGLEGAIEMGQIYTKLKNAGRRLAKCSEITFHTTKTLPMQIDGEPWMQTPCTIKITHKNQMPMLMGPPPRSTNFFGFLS
DGK ζ kinase, sequence (Q13574 whole entry): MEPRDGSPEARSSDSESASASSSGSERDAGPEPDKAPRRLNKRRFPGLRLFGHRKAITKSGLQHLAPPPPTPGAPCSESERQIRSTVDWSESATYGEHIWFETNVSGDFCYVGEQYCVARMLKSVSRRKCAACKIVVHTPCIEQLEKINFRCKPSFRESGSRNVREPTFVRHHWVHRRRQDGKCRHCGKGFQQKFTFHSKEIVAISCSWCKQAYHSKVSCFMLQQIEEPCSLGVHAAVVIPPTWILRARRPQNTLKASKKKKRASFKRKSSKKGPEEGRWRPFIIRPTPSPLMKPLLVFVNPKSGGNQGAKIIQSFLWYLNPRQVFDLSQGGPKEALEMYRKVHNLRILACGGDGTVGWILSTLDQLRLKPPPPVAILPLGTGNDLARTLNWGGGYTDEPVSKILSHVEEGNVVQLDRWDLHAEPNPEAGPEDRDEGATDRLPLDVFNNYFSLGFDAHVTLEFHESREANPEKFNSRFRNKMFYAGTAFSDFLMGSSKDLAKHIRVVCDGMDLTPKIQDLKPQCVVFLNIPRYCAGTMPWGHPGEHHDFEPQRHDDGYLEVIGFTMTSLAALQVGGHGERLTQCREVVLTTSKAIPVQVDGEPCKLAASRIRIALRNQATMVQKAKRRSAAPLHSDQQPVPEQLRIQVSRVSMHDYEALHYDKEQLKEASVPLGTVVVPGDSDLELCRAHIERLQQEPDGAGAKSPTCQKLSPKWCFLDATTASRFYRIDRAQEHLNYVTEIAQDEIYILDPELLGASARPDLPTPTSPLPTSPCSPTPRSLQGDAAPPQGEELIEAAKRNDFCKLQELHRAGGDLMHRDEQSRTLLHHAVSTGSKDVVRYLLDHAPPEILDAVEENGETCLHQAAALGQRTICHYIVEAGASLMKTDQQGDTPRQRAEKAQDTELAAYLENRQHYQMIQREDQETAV

Take `CC(C)(C#N)c1nnc(-c2cc3c(cc2F)C(F)(F)C[C@@H](N)C(=O)N3Cc2ccc(-c3ccc(C(F)(F)F)cn3)cc2)o1` (single isomer, unassigned) [Example 12]: the pIC50 is 7.14 at DGK ζ kinase and 6.97 at DGK α kinase. Besides, in the test on primary human T-cells, the pEC50 was 6.39. In addition, the Emax in the test on primary human T-cells was found to be 152%.

Turning to `COc1ccc(-c2ccc(CN3C(=O)[C@H](N)CC(F)(F)c4cc(F)c(-c5nnc(C(C)(C)S(C)(=O)=O)o5)cc43)cc2)cc1` (single isomer, unassigned) [Example 10], the negative-log IC50 (pIC50) on DGK ζ kinase is 5.98. In the test with primary human T-cells, the pEC50 was 6.42 and the Emax was determined as 76%. At DGK α kinase, the pIC50 is 7.03.

`CC(C)(C)c1nnc(-c2cc3c(cc2F)C(F)(F)C[C@@H](N)C(=O)N3Cc2ccc(OC3CCCC3)cc2)o1` (single isomer, unassigned) [Example 7]: the results for the pIC50 on DGK ζ kinase and at DGK α kinase were 7.31 and 7.15, respectively. Moreover, the pEC50 in the test with primary human T-cells is 6.90. In addition, the Emax in the test with primary human T-cells was found to be 110%.

In the case of `COc1ccc(-c2ccc(CN3C(=O)[C@H](N)CC(F)(F)c4cc(F)c(-c5nnc(C(C)(C)C#N)o5)cc43)cc2)cc1` (single isomer, unassigned) [Example 9], at DGK ζ kinase, the pIC50 was 7.49. Besides, in the test with primary human T-cells, the pEC50 is 6.57 and the Emax was 114%. Moreover, the pIC50 at DGK α kinase was 7.36.

In the case of `CC(C)(C#N)c1nnc(-c2cc3c(cc2F)C(F)(F)CC(N)C(=O)N3Cc2ccc(-n3cc(C(F)(F)F)cn3)cc2)o1` (racemic) [Example 33, 2-[5-[(3S)-3-amino-5,5,7-trifluoro-2-oxo-1-[[4-[4-(trifluoromethyl)pyrazol-1-yl]phenyl]methyl]-3,4-dihydro-1-benzazepin-8-yl]-1,3,4-oxadiazol-2-yl]-2-methyl-propanenitrile and 2-[5-[(3R)-3-amino-5,5,7-trifluoro-2-oxo-1-[[4-[4-(trifluoromethyl)pyrazol-1-yl]phenyl]methyl]-3,4-dihydro-1-benzazepin-8-yl]-1,3,4-oxadiazol-2-yl]-2-methyl-propanenitrile], at DGK ζ kinase, the pIC50 is 7.10. Moreover, in the test on primary human T-cells, the pEC50 is 7.01 and the Emax is 128%. For the same molecule, the pIC50 at DGK α kinase was 8.09.

With `CC(F)(F)c1ccc(-c2ccc(CN3C(=O)[C@H](N)CC(F)(F)c4cc(F)c(-c5nnc(C(C)(C)C#N)o5)cc43)cc2)nc1` (single isomer, unassigned) [Example 37], the pIC50 on DGK ζ kinase was 6.87. In addition, in the test with primary human T-cells, the pEC50 was 6.67 and the Emax stood at 138%. For the same molecule, the pIC50 on DGK α kinase was 7.34.

Take `CC(C)(c1nnc(-c2cc3c(cc2F)C(F)(F)C[C@@H](N)C(=O)N3Cc2ccc(-n3cnc(C(F)(F)F)n3)cc2)o1)S(C)(=O)=O` (single isomer, unassigned) [Example 23]: in the test with primary human T-cells, the pEC50 was < 5.00 and the Emax worked out at 98%.

Consider `COc1ccc(-c2ccc(CN3C(=O)[C@H](N)CC(F)(F)c4cc(F)c(-c5nnc(C(C)(C)S(C)(=O)=O)o5)cc43)cc2)nc1` (single isomer, unassigned) [Example 39], for which, in the test with primary human T-cells, the pEC50 is 5.85 and the Emax came out at 98%.

Turning to `CC(C)(C#N)c1nnc(-c2cc3c(cc2F)C(F)(F)C[C@@H](N)C(=O)N3Cc2ccc(-c3ccc(OC(F)F)cn3)cc2)o1` (single isomer, unassigned) [Example 41], in the test with primary human T-cells, the pEC50 is 6.71 and the Emax amounted to 113%.
